Earlier results, collected in patent US20240016731A1, “Drug Implants Containing Apalutamide and Methods of Use Thereof” (The Regents of the University of California, priority 2020, published 2024).

Conditions: systemic (e.g., oral) administration, assuming 240 mg daily dose

## CNC(=O)c1ccc(N2C(=S)N(c3cnc(C#N)c(C(F)(F)F)c3)C(=O)C23CCC3)cc1F [apalutamide, Apalutamide]
  steady state blood plasma concentration of apalutamide: about 6 μg/ml
